Test results as given in article PMC10475101, “Selective steroidogenic cytochrome P450 haem iron ligation by steroid-derived isonitriles” (Communications Chemistry, 2023).
“And” between values parts separate entries of the source, which are not always exact repeats. Equal values may be shown once. “Also recorded” adds a separate entry of the source.

Columns and labels:
[1] = target: T1, CYP17A1 (Homo sapiens, UniProt P05093); assay: Reduction and reoxidation assay
T1 construct: made in house
T1 sequence (P05093 1-508): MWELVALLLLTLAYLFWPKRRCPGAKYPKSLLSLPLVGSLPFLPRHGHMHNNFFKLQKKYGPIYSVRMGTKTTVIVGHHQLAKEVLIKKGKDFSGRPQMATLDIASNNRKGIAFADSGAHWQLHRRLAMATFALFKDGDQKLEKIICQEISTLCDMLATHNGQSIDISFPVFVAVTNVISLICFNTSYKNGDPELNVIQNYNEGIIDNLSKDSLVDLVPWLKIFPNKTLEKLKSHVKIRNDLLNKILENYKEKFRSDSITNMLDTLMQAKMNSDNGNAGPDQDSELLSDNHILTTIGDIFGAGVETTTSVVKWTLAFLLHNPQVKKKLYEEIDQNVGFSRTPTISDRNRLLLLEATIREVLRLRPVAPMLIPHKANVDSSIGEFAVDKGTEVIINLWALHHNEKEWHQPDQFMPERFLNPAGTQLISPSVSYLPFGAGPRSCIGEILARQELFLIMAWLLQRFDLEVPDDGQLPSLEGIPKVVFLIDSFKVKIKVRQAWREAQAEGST
Experimental: (§1) Reduction of the 1-bound P450 complex was observed by taking a baseline absorbance reading from 400 to 500 nm using a UV-visible scanning spectrophotometer, of a 1 cm quartz cuvette containing 1 µM P450, with compound 1 at a saturating concentration (i.e., ≥ concentration needed to reach ΔAmax), in binding assay buffer (100 mM potassium phosphate buffer (pH 7.4), 20% glycerol, and 100 mM sodium chloride). A small quantity of sodium dithionite (spatula tip-full) was then added to the cuvette, and the spectra were recorded periodically over time to observe the formation of peaks indicating the reduction (~426 and 456 nm) and subsequent reoxidation (~435 nm) of the complex. The total time course for Fig. 6B was 103 min and 37 s. Numerical data used to generate graphs in Fig. 6 are provided in Supplementary Data 3 in Excel format.
(§2) 185 S2) Ligand binding and inhibition assays
(§3) 186 Reduction and reoxidation assays. Reduction of the isonitrile-bound P450 complex was observed by taking
(§4) 187 a baseline absorbance reading from 400 to 500 nm using a UV-visible scanning spectrophotometer, of a 1cm
(§5) 188 quartz cuvette containing 1 µM P450, with the selected isonitrile compound at a saturating concentration
(§6) 189 (i.e., ≥ concentration needed to reach ΔAmax), in the same buffer used for binding assays (100 mM potassium
(§7) 190 phosphate buffer (pH 7.4), 20% glycerol, and 100 mM sodium chloride). A small quantity of sodium dithionite
(§8) 191 (spatula tip-full) was then added to the cuvette, and the spectra were recorded periodically over time to
(§9) 192 observe the formation of peaks indicating the reduction (~426 and 456 nm) and subsequent reoxidation
(§10) 193 (~435 nm) of the complex. The total time course for Figure 6B was 103 minutes and 37 seconds. […]
(§11) 217 initiated by adding NADPH to a final concentration of 1 mM. After 20 minutes, metabolism was quenched
(§12) 218 by adding 50 µL acetonitrile and placed on ice. The reaction vials were centrifuged at 5000 xg for 5 minutes
(§13) 219 to pellet the precipitated protein, then the supernatant was injected onto a C18 column (Phenomenex, Luna,
(§14) 220 50 x 4.6 mm) for HPLC. Separation on HPLC was obtained using a mobile phase of 45%/55% water/methanol
(§15) 221 for 40 minutes. A standard curve of known product concentrations was used to convert the area under the
(§16) 222 curve to the amount of product produced.
(§17) 224 S3) Crystallization of 1-CYP17A1 complex and X-ray diffraction
(§18) 225 Protein Crystallization and Structure Determination. CYP17A1 was saturated with 3β-formyl-5α
(§19) 226 pregnanolone-20(R)-isonitrile (verified by 430 nm Soret peak) and prepared for crystallization via hanging

[2] = target: T2, CYP2D6 (Homo sapiens, UniProt P10635, L230D/L231R); assay: Reduction and reoxidation assay
T2 construct: made in house
Experimental: as §1, §2, §3, §4, §5, §6, §7, §8, §9, §10, §11, §12, §13, §14, §15, §16, §17, §18, §19

[3] = CYP17A1/20-(R)-1 complex reduced by sodium dithionite
[4] = CYP2D6/20-(R)-1 complex reduced by sodium dithionite

T2 sequence (P10635 whole entry L230D/L231R): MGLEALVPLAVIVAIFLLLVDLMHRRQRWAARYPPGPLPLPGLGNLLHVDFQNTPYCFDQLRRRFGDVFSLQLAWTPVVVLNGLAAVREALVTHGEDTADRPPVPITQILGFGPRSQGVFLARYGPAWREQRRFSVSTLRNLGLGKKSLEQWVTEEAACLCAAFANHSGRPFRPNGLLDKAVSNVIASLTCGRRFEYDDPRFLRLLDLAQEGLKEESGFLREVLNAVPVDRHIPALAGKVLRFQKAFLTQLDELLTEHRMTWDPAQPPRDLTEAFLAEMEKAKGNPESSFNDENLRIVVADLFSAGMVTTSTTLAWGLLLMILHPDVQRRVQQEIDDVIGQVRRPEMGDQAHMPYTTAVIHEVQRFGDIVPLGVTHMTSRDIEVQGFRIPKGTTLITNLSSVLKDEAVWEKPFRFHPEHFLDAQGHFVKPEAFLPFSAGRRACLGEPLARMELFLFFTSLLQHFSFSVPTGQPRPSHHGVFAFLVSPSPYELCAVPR

## [C-]#[N+][C@H](C)[C@H]1CC[C@H]2[C@@H]3CC[C@H]4C[C@@H](OC=O)CC[C@]4(C)[C@H]3CC[C@]12C [Compound 1, 3β-formyl-5α-pregnanolone-(R)-20-isonitrile]
[1]; CYP17A1/20-(R)-1, in air over 105 min
  reoxidation of reduced complex in air: largely resistant to re-oxidation; also recorded: little reoxidation
[1]; [3]
  split Soret after reduction, higher-wavelength maximum: 454 nm
  split Soret after reduction, lower-wavelength maximum: 430 nm and 429.5 nm
[2]; CYP2D6/20-(R)-1
  Soret peak after reoxidation in air: ~ 435 nm and 437 nm
[2]; CYP2D6/20-(R)-1, same time period
  reoxidation of reduced complex in air: re-oxidizes in air
[2]; [4]
  split Soret after reduction, higher-wavelength maximum: 455 nm
  split Soret after reduction, lower-wavelength maximum: 431 nm
